One compound from paper PMC5064002, “Sintokamide A Is a Novel Antagonist of Androgen Receptor That Uniquely Binds Activation Function-1 in Its Amino-terminal Domain” (The Journal of Biological Chemistry, 2016) can be followed below.

In one assay the target is T1, AR-YFP (Homo sapiens, UniProt P10275).
T1 construct: expressed in transfected cells; host or cells: LNCaP
T1 sequence (P10275 1-920): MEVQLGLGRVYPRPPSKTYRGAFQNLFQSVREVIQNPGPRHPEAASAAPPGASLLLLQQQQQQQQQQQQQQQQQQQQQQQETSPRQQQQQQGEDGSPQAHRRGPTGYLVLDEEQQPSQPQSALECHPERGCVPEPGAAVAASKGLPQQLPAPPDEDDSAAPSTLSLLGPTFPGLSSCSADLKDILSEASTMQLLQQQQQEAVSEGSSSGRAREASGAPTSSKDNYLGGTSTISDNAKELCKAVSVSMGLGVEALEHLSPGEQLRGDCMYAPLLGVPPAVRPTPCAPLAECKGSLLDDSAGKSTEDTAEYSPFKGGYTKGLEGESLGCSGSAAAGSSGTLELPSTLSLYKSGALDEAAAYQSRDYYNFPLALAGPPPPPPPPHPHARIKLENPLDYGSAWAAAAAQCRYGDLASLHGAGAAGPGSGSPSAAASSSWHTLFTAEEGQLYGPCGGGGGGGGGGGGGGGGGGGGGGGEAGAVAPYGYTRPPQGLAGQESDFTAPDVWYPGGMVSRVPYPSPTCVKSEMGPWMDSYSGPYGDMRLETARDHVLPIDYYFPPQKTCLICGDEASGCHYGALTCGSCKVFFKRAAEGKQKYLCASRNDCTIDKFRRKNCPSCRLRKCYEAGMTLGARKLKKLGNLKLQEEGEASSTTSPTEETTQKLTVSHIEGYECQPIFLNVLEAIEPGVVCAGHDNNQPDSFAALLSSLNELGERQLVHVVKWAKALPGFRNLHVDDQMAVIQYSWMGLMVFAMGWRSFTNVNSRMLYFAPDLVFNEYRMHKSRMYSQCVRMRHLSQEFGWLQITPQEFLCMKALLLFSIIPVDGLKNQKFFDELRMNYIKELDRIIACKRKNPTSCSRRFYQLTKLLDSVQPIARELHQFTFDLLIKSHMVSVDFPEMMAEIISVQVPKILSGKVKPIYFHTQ
Nature of the assay: AR nuclear translocation (AR-YFP) in LNCaP cells. It is filed as cell-based. The settings on record: 10 μM compound. How it is done:
Cells were exposed to 1 nM R1881 for an additional 2 h, fixed with paraformaldehyde, and mounted in Vectashield antifade mounting medium with DAPI (H-1200, Vector Laboratories). Cellular localization of AR was examined by fluorescence microscopy using an Axiovert 200 microscope equipped with a YFP filter (excitation, 500/20 nm; emission, 535/30 nm; Zeiss, Toronto, Ontario, Canada). Images were taken using a Axiocam MR camera and the AxioVision 4.4 software (Zeiss, Toronto, ON, Canada).

The next assay relates to LNCaP95 xenografts. Nature of the assay: LNCaP95 xenografts in castrated mice. It is filed as in vivo, NOD-SCID mice. The procedure: At 48 h, total RNA was isolated using a PureLink RNA Mini kit (Invitrogen). For in vivo expression, tumors were harvested 3 days after last treatment, and RNA was extracted using TRIzol. Prior to cDNA generation, 4 μg of RNA were DNase-treated using DNase I (amplification grade; Sigma-Aldrich). DNase-treated RNA was split into two tubes (+RT and −RT), and cDNA was generated using the High Capacity RNA-cDNA kit (Applied Biosystems). Once complete, both reactions were adjusted to 5 ng/μl and stored at −20 °C. Approximately 5 ng of diluted cDNA and gene-specific primers were mixed with Platinum SYBR Green qPCR SuperMix-UDG with ROX (Invitrogen). The transcripts were measured using an ABI PRISM 7900 Sequence Detection System (Invitrogen). For all quantitative RT-PCR experiments, each sample was tested in triplicate, and gene expression levels were normalized to the reference gene RPL13A. Neuron-specific enolase (ENO2) (Gene ID, 2026; pair 1) and synaptophysin (SYP) (Gene ID, 6855; pair 2) human primers were from Sigma Life Science. All other primers were described previously ([4], [9]) and purchased from Integrated DNA Technologies.
Male NOD-SCID mice bearing subcutaneous LNCaP or LNCaP95 tumors were castrated when the tumor volume reached ∼100 mm^3. Seven days after castration, animals were injected intratumorally with 30 mg/kg of body weight SINT1 or a matching volume of vehicle (DMSO) every 3 days for a total of 15 days. Animal behavior and body weight were observed throughout the study period for signs of toxicity. Tumor volumes were calculated by the formula length × width × height × 0.5236. Tumors were excised 3 days after the last injection and prepared for immunohistochemistry or gene expression.

As to `CCC(=O)NC(CC(C)C(Cl)(Cl)Cl)C(=O)N1C(=O)C=C(OC)C1CC(C)C(Cl)Cl` (centres unmarked) [SINT1, Sintokamide A], the “nuclear translocation of AR in the absence of androgen” value at AR-YFP is on record as “AR remained cytoplasmic”. Also, on AR-YFP (1 nM R1881 2 h), the “nuclear translocation of AR in the presence of androgen” value is recorded as “Androgen induced AR translocation to the nucleus regardless of treatments”. Also, the “growth of LNCaP95 tumors” value in the assay on LNCaP95 xenografts (castrated mice, 30 mg/kg intratumorally every 3 days) is reported as “significantly reduce the growth”. Also, the “levels of expression of ENO2 and SYP genes (neuroendocrine differentiation)” value in the assay on LNCaP95 xenografts (harvested LNCaP95 xenografts) is on record as “no significant changes”. For the same compound, the “levels of FL-AR and AR-V7 transcripts in harvested LNCaP95 xenografts” value in the assay on LNCaP95 xenografts (tumors harvested 3 days after last treatment) is on record as “not significantly altered”.
